{
  "source": "patent US10858305B2",
  "about": "“Perillyl alcohol-3-bromopyruvate conjugate and methods of treating cancer” (NeOnc Technologies, Inc., priority 2016, dated 2020)",
  "key": {"[1]": {"tested_on": "MDA-MB-231, T47D, T98G, U251, HCT116 and A2780 cancer cells", "assay": "MTT assay, cell viability after 48 hours in six cancer cell lines", "assay_type": "cell-based, human", "excerpt": "The tumor cell-killing potency of NEO218 was characterized by in vitro, short-term MTT assays (measuring viability of cells via determination of metabolic activity), LDH assays (measuring the release of lactate dehydrogenase as an indicator of leaky cell membranes, which are indicative of dying cells), and colony-formation assays (CFA, which determine long-term survival of drug-treated cells and their ability to spawn a colony of descendants). Several established cell lines derived from cancers of the breast were used as target cells (including MDA-MB-231; MDA-MB-468; T47D; MCF7; MCF7/Dox; BTB12), brain (T98G; U251), ovary (A2780), and colon (HCT116). In all cases, cells in culture were exposed to increasing concentrations of agents for 24 or 48 hours.\nCell lines from different cancer types were treated with increasing concentrations of 3-bromopyruvate (3-BP) or NEO218. After 48 hours, cell viability was measured by MTT assay. MDA-MB-231 and T47D are breast cancer cells; T98G and U251 are brain cancer (glioblastoma) cells; HCT116 are colon cancer cells; A2780 are ovarian cancer cells."}, "tumor cell lines": {"tested_on": "tumor cell lines", "assay": "cells", "assay_type": "cell-based, human", "procedure": "Different tumor cell lines were treated with 3-BP mixed with POH, and the effects were compared to the effects of NEO218, as well as to 3-BP alone. The cells were treated for 24 hours, and then the MTT assay was conducted to measure cell viability."}, "[2]": {"tested_on": "MDA-MB-231 triple-negative breast cancer cells", "assay": "Subcutaneous MDA-MB-231 xenograft in nude mice", "assay_type": "in vivo", "settings": "5 mg/kg on days 1, 5, 9", "procedure": "The anticancer activity of NEO218 in vivo was investigated next. MDA-MB-231 triple-negative breast cancer cells were subcutaneously implanted into 12 nude mice. After two weeks, the animals were separated into 2 groups for treatment with either vehicle (no drug) or NEO218 (5 mg/kg). Then, NEO218 (or vehicle) was administered on days 1, 5, and 9 (3 doses total, 4 days apart). Tumor growth was measured with calipers every 3 days from day 1 (=start of treatment) until day 13 (end of experiment).\nThe panels show tumor growth over time for each individual animal."}, "MDA-MB-231 cells": {"tested_on": "MDA-MB-231 cells", "assay": "Colony formation assay in MDA-MB-231 cells", "assay_type": "cell-based", "settings": "Homo sapiens; MDA-MB-231, 48 hours drug then 10-14 days; read-out: effective concentration (half-maximal), CFA", "procedure": "(A) MTT assay was performed after 24 hours. […] (B) LDH assay was performed after […]. LDH release by untreated cells was set to 1. Relative fold increase is shown (n=3).\n(A) MTT assay was performed after 24 hours. Viability of untreated cells was set at 100% (data points are averages of 2 experiments). (B) LDH assay was performed after 24 hours. LDH release by untreated cells was set to 1. Relative fold increase is shown (averages from 2 experiments). (C) Representative photos show typical colony formation after initial 48 hours of drug treatment. In all cases of combination treatment with 3-BP mixed with […] (3-BP+POH), the indicated concentrations refer to each individual drugs, i.e., 100 μM 3-BP+POH means that 100 μM 3-BP was combined with 100 μM POH.\nDepending on the cell line (and plating efficiency), 250-800 cells were seeded into each well of a 6-well plate and treated as described in detail previously. After 12-16 days, colonies (defined as groups of >50 cells) were visualized by staining for 4 hours with 1% methylene blue (in methanol), and then were-counted. Experiments were repeated at least once, but usually more often under different conditions."}},
  "data": [
    {"compound": "C=C(C)[C@@H]1CC=C(COC(=O)C(=O)CBr)CC1", "note": "[NEO218, 3-bromo-2-oxo-propionic acid 4-isopropenyl-cyclohex-1-enylmethyl ester]", "values": [
      {"measurement": "IC50", "setting": "[1]; Homo sapiens, all six cell lines", "value": "15 to 40", "unit": "µM"},
      {"measurement": "cancer cell killing effects compared with 3-BP", "setting": "[1]; MTT", "value": "more potent cancer cell killing effects than 3-BP in all cell lines"},
      {"measurement": "cytotoxic potency compared with the other treatments", "setting": "tumor cell lines", "value": "much more potent than any other treatment"},
      {"measurement": "organ toxicity or other side effects", "setting": "[2]", "value": "organ toxicity or other side effects were not detected"},
      {"measurement": "tolerability in mice", "setting": "[2]", "value": "tolerated this compound quite well"},
      {"measurement": "tumor growth compared with vehicle group", "setting": "[2]", "value": "slower tumor growth"},
      {"measurement": "tumor volume at the end of the experiment", "setting": "[2]; day 13, all animals", "value": "below 200 cubic millimeters"}
    ]},
    {"compound": "O=C(O)C(=O)CBr", "note": "[3-BP, 3-bromopyruvate]", "values": [
      {"measurement": "IC50", "setting": "MDA-MB-231 cells", "value": "~130", "unit": "µM"}
    ]}
  ]
}
